Results: PMC9518286, “Design, synthesis, biological evaluation and molecular docking study of 2,4-diarylimidazoles and 2,4-bis(benzyloxy)-5-arylpyrimidines as novel HSP90 N-terminal inhibitors” (Journal of Enzyme Inhibition and Medicinal Chemistry, 2022)

How the values were obtained:
HSP90α [1] = target: T1, HSP90α (Homo sapiens, UniProt P07900); assay: biochemical; design: fluorescence polarisation competition with FITC-labelled geldanamycin on HSP90α N-terminal domain (BPS kit 50293); details: read-out: FP IC50
T1 construct: gene HSP90AA1; N-terminal domain
Description: The binding affinity for HSP90α was evaluated using a commercially available Hsp90α N-terminal domain assay kit (Catalogue: #50293, BPS Bioscience, CA, USA). According to the manufacturer’s instructions, 5x HSP90 assay buffer (5 μL), 40 mM dithiothreitol (5 μL), 2 mg/mL BSA (5 μL), and H2O (40 μL) were sequentially added to each well. After the addition of diluted FITC-labelled geldanamycin solution (100 nM, 5 μL), compounds at different concentrations (10 μM, 1.0 μM, 0.1 μM, 0.01 μM) were added. The reaction was initiated by the addition of 20 μL of Hsp90α (17 ng/μL). After 2 h of incubation with slow shaking at room temperature, the fluorescent polarisation was measured using Synergy H1 (BioTek Instruments, Inc.). The excitation and emission wavelengths were 485 nm and 530 nm, respectively. IC50 values were calculated based on the signal changes in the FP competition assay. The experiments were performed in triplicate. To further verify the binding of the synthesised compounds to the HSP90 N-terminus, the binding affinity of five typical compounds (16j, 16l, 16m, 22k, and 22l) was evaluated using an FP assay. The addition of compounds with HSP90 inhibitory capacity into the assay would compete with the fluorescence probe for binding into HSP90, resulting in a decrease in FP in comparison with the probe alone.

HSP90α [2] = target: T1, HSP90α; assay: fluorescence polarisation competition with FITC-geldanamycin (BPS kit #[…]); type: binding

Structure (SMILES)	IC50 (HSP90α [1]) [µM]	IC50 (HSP90α [2]) [µM]
Clc1ccc(-c2nc(-c3cccc(Cl)c3)cn2Cc2ccccc2)cc1 [16m, 1-Benzyl-4–(3-chlorophenyl)-2–(4-chlorophenyl)-1H-imidazole]	0.62 ± 0.11	
Cc1ccc(-c2cn(Cc3ccccc3)c(-c3ccc(Cl)cc3)n2)cc1 [16j, 1-Benzyl-2–(4-chlorophenyl)-4-(p-tolyl)-1H-imidazole]	0.61 ± 0.03	
Clc1ccc(-c2cn(Cc3ccccc3)c(-c3ccc(Cl)cc3)n2)cc1 [16l, 1-Benzyl-2,4-bis(4-chlorophenyl)-1H-imidazole]	0.57 ± 0.06	

Next, values leading:

IC50 (HSP90α [1]) [µM]	IC50 (HSP90α [2]) [µM]	Structure (SMILES)
0.58 ± 0.11		Oc1cccc(-c2cnc(OCc3ccccc3)nc2OCc2ccccc2)c1 [22l, 3–(2,4-Bis(benzyloxy)pyrimidin-5-yl)phenol]
	0.21 ± 0.03	Oc1ccc(-c2cnc(OCc3ccccc3)nc2OCc2ccccc2)cc1 [22k, 4–(2,4-Bis(benzyloxy)pyrimidin-5-yl)phenol]
